Reference: patent publication US20030059797A1, “Animal model of and test for Alzheimer's disease” (priority 1999, published 2003)
“And” between values parts separate entries of the source, which are not always exact repeats. Identical values can stand only once.

How the values were obtained:
tryptamine binding site = settings: cited from earlier work; for binding to tryptamine site (in words): human cortical membrane preparation, Mousseau & Butterworth 1994
[1] = test system: human neuroblastoma SH SY5Y cell line; assay: Cultivation of SH SY5Y cells with TrpRS inhibitors; format: cell-based; settings: for cell survival after cultivation with inhibitor: 50-100 μg/ml, 5 days, initial density 1×10^3 on 10-cm dishes
Experimental: The involvement of TrpRS inhibitors in neurofibrillary tangles formation was tested in the human neuroblastoma SH SY5Y cell line expressing tau. Tanaka et al., FEBS Lett. 426: 248-254 (1998). This cloned line comprises two morphologically distinct cell types: predominantly neuroblastic (bearing short neurites) and epithelial-like (lacking neurites). Biedler et al., Cancer Res. 33: 2643-2652 (1973). SH SY5Y cells were grown in 25 cm^2 flasks (TPP, Switzerland) in 5% CO2 at 37° C. in RPMI 1640 medium supplemented with 10% fetal calf serum, 100 u/ml penicillin, 100 μg/ml streptomycin, 0.25 μg/ml amphoterycin and 2 mM glutamine. The neuron/axon lines were isolated after seeding microscopically verified single […] cells.
Continuous treatment with lower concentrations of the inhibitors led to accumulation of large flattened, tightly substrate adherent epithelial-like cells lacking neurites, while the majority of neuroblasts died.
TrpRS was mainly localized in axons and to a less extent in the neuronal body and dendrites (wrs, FIG. 1e). […] In some sublines, however no neuroblasts were observed during 12 months cultivation without inhibitors (low panel, FIG. 1f).

neuronal cell lines = settings: Tanaka et al. 1998; cited from earlier work
SH SY5Y cells = assay: Tryptamine treatment of epithelial-enriched and neuron-axon SH SY5Y cells, staining and electron microscopy; format: cell-based, human; settings: 20-100 μg/ml tryptamine for 6-60 days, electron microscopy
Experimental: To examine control epithelial cells, which were not pretreated with inhibitors, neuroblastic and epithelial-enriched cells were separated from one another by exploiting a marked difference in adhesive properties. Biedler et al., Cancer Res. 33: 2643-2652 (1973). The weakly adherent neuroblasts were washed out with trypsin. The selected epithelial-enriched and tryptamine-differentiated neuron-axon cells were treated with 20-100 μg/ml tryptamine for 6-60 days and then stained. […] (Mouse anti-human PHF-tau, clone AT8 against epitope containing phosphorylated Ser202 was obtained from Innogenetics (Ghent, Belgium).)
To test whether TrpRS and tau co-localize in neurofibrillary tangles, fluorescent double labeling with AT8 and anti-TrpRS was performed. In acute-treated cells, the proteins were co-localized both in I-NFT-like encircled nuclei (FIG. 2e, f, i, and j) and E-NFT-like manifestations (FIG. 2g). In the perikarya of the control pretreated or untreated epithelial cells, few if any such formations were labeled (FIG. 2h and FIG. 2k). The staining is specific. The staining was absent in the control specimens probed with secondary antibodies (FIG. 2l).
To test whether tryptamine-induced manifestations are associated with neurofilaments, the cells were prepared either as a suspension (FIG. 2m) or as a monolayer and then analyzed by electron microscopy. […]

TrpRS = assay: Western blot of TrpRS in detergent-insoluble fraction of treated cells; format: cell-based, human; settings: 6C10/C9 blot
Experimental: The involvement of tau and TrpRS in tryptamine-induced phenotypes was tested in extracts of control and treated cells. Triton extraction was performed as follows: Cells were lysed in 0.1 M Hepes buffer, pH 6.9, 0.5% Triton X100, 1 mM MgCl2, 0.1 mM EDTA, 2 mM EGTA, 1 mM DTT, 1 mM PMSF, 0.4 mg/ml aprotinin, 0.1 mg/ml antipain, leupeptin, pepstatin, and hemastatin, 0.1 μM okadaic acid, 10 mM sodium ortovanadate, and 50 mM sodium fluoride for 20 min in situ at room temperature. The detergent-insoluble fraction was collected with scraper and washed in the same buffer excluding inhibitors of phosphatases. The detergent-insoluble fraction was then solubilized in SDS-sample buffer at 100° C. for 5 min, and spun. […]
In the Western blot, both human recombinant ˜54 kDa and bovine ˜60 and ˜40-42 kDa (well-characterized proteolytic fragments) TrpRS reacted with 6C10/C9 and polyclonal antibodies (FIG. 3b), while poorly with 9D7. The main form and an additional high molecular weight TrpRS were induced in detergent-insoluble cytoskeleton by tryptamine treatment (right panel, FIG. 3c), whereas no difference was detected between acute-treated and pretreated cells (left and middle panels, FIG. 3c) when total extracts were analyzed. In the cytoskeleton of both treated and control cells, TrpRS was detected at a lower molecular weight than the cytoplasmic TrpRS (FIG. 3c). […]

mice [2] = assay: Running on a narrow stick, tryptamine-treated mice; format: in vivo; settings: individual mouse
Experimental: (§1) An Alzheimer's disease mouse model was obtained by using intravenous injections of male mice at 8 weeks or age- and sex-matched mice with 1-500 micrograms of tryptamine every second day for at least 2.5 weeks. In one embodiment, mice are injected with 50 micrograms of tryptamine for 4 months. However, the duration of treatment, intervals between injections and concentrations of tryptamine can be successfully varied. Control mice are injected with phosphate-buffered saline.
Behavioral tests with control and tryptamine-treated mice. Behavioral assays with control and tryptamine-treated mice included tests for movement or coordination, sense of balance, orientation, and loss of interest. The behavioral tests in which the tryptamine-treated mice were tested included (a) a test of stable sitting (following 3 months of treatment), and (b) a test of running on a narrow stick (following 3, 4 and 6 months of the treatment). […] As shown in the testing this behavior of mice is age-dependent. […] The data obtained regarding behavior of the control and tryptamine-treated mice are in good agreement with later signs of Alzheimer's disease compared with normal signs of aging (Source: Alzheimer's Disease: early warning signs and diagnostic resources. The Junior League of NYC, Inc, 1988).
The model mice were made to run on a white metallic 80 cm stick having a diameter of 1 cm stick and placed 30 cm over the surface of a platform. Data in TABLE I are: (a) lag time (time that the mice were sitting at one end of the stick before beginning to run); (b) run time; and (c) the % of the stick that the mice successfully completed.

mice [3] = assay: Stability (balance) on narrow 1-cm stick; format: in vivo
Experimental: FIG. 7 is a set of tables and graphs showing measurements of the treated mice's behavior. The control and tryptamine-treated model mice were put on a narrow 1-cm diameter metallic stick. The time that mice balanced on the stick was measured in seconds. 66% of control versus 10% of treated mice kept on the stick for more than 6 seconds in the first experiment and 66% of control versus 20% of treated were for more than 13 seconds in the second experiment. Thus, the model mice were 6.6 times less balanced or coordinated than control.
FIG. 7 is a set of tables and graphs showing measurements of the treated mice's stability The control and tryptamine-treated model mice were put on a narrow 1 cm diameter metallic stick. The time of their presence on the stick was measured in seconds. […] Thus, the model mice are 6.6 times less balanced than control.

mice [4] = assay: Brain histology of tryptamine-treated mice (Congo Red, Gallyas silver staining); format: in vivo; settings: intravenous, every second day, at least 2.5 weeks of treatment
Experimental: as §1
Immunochemical assays with control and tryptamine-treated mice. Following tryptamine treatment, the brains of the treated model mice and the control untreated mice were routinely fixed; sectioned, stained and analyzed microscopically, using commonly used well-established methods. The mouse brains were examined for Alzheimer's-like manifestations.
These manifestations were not found in the control mice.
FIG. 5 is a set of micrographs showing Congo Red staining and birefringence of sagittal sections from brains of tryptamine-treated mice. […] FIG. 6 is a set of micrographs showing silver staining of Alzheimer's neurofibrillary changes in the brain sections of tryptamine-treated mice.

mice [5] = assay: Observation of health and behavior of tryptamine-treated mice; format: in vivo
Experimental: as §1
The tryptamine-treated mice appear to be healthy in comparison to the control mice. The treated mice are clean and fat.

Q: Which “lower binding to tryptamine site than tryptamine” value (tryptamine binding site; relative to tryptamine) does the source give for NCCc1c[nH]c2ccc(O)cc12 [5-hydroxytryptamine] here?
A: > 100

Q: With CC(N)Cc1ccccc1 (stereo not shown) [amphetamine] as the molecule, how does the “binding to tryptamine site (in words)” value (tryptamine binding site) read?
A: higher affinity for the (+)-stereo isomer compared with (−)-isomer

Q: With C#CCN(C)[C@H](C)Cc1ccccc1 [deprenyl] as the molecule, how does the “binding to tryptamine site (in words)” value (tryptamine binding site) read?
A: higher affinity for the (+)-stereo isomer compared with (−)-isomer

Q: Which “cell survival after cultivation with inhibitor” value [1] does the source give for N[C@H](CO)Cc1c[nH]c2ccccc12 [tryptophanol] here?
A: all cells have died

Q: For COc1ccc2[nH]cc(CCN)c2c1 [5-methoxytryptamine], which “binding to tryptamine site (in words)” value (tryptamine binding site) is on record?
A: higher binding to tryptamine site compared with 5-hydroxytryptamine

Q: With C=C1[C@@H](O)[C@@H]2O[C@]3(CC[C@H](/C=C/[C@@H](C)[C@@H]4CC(C)=C[C@@]5(O[C@H](C[C@@](C)(O)C(=O)O)CC[C@H]5O)O4)O3)CC[C@H]2O[C@@H]1[C@@H](O)C[C@H](C)[C@H]1O[C@@]2(CCCCO2)CC[C@H]1C [okadaic acid] as the molecule, how does the “effect on tau and neurofibrillary tangles” value (neuronal cell lines) read?
A: results only in tau hyperphosphorylation, but not neurofibrillary tangles

Q: Which results are given for NCCc1c[nH]c2ccccc12 [tryptamine]?
A: cell survival after cultivation with inhibitor [1]: all cells have died; relative toxicity for neuroblasts and epithelial cells ([1]; SH SY5Y): more toxic for neuroblasts than for epithelial cells; neurodifferentiation of epithelial cells ([1]; continuous treatment with lower concentrations, then cultivation without inhibitors): induces neurodifferentiation of the epithelial cells; neurofibrillary tangles in treated cells (SH SY5Y cells): numerous neurofibrillary tangles were found; expression of cytoskeleton TrpRS forms (TrpRS): induces high expression of cytoskeleton TrpRS forms; Run time (mice [2]; 80 cm stick, 1 cm diameter): 2 seconds and 0 seconds (7×) and 10 seconds and 17 seconds; Lag time (mice [2]; 80 cm stick, 1 cm diameter, time sitting at one end before beginning to run): 50 seconds and 47 seconds and 11 seconds and 17 seconds and 13 seconds and 40 seconds and 3 seconds (2×) and 9 seconds and 15 seconds; % of the way (mice [2]; % of the stick successfully completed): 40% and 0% (7×) and 20% and 50%; % of treated mice kept on the stick for more than 6 seconds (mice [3]; first experiment, control 66%): 10%; % of treated mice kept on the stick for more than 13 seconds (mice [3]; second experiment, control 66%): 20%; times less balanced than control (mice [3]; treated versus control mice): 6.6 times; Alzheimer's-like manifestations in brain sections (mice [4]): Senile plaques, neurofibrillary tangles, and neuropil threads and fibrils were detected; toxic effect (mice [5]; four months of treatment): do not show any toxic effect; aggressive behavior (mice [5]; in contrast to control mice): do not show aggressive behavior; binding to tryptamine site (in words) (tryptamine binding site): most potent inhibitor

Q: Which “binding to tryptamine site (in words)” value (tryptamine binding site) does the source give for N[C@@H](Cc1c[nH]c2ccccc12)C(=O)O [tryptophan] here?
A: dramatically lower binding to trypatmine site than tryptamine
